What was measured:
α₁ = assay: α1-antagonistic effect on phenylephrine-induced vasoconstriction of rabbit isolated aorta; format: cell-based; conditions: antagonism of vasoconstriction induced by phenylephrine (α₁-agonist)
From the text: The α₁-antagonistic effect has been evaluated as antagonistic effect (pA₂) on vasoconstriction induced by phenylephrine (α₁-agonist) on rabbit isolated aorta. For compound A the obtained pA₂ value was 7.7.

D₁ receptor = biological target: T1, D₁ receptor (Rattus norvegicus, UniProt P18901); assay: Dopaminergic activity: receptor binding on isolated membranes of rat striated muscle, D1; conditions: read-out: IC₅₀
T1 construct: from tissue; host or cells: isolated membranes of rat striated muscle (so in the source); probably striatum is meant
Procedure: (§1) The dopaminergic activity of compound A, for example, has been evaluated as percentage of receptor binding on isolated membranes of rat striated muscle; the IC₅₀ resulted to be 0.3 µM for D₂ receptor and 3 µM for D₁ receptor.

[1] = test system: spontaneously hypertensive rat; assay: Systemic arterial pressure decrease after intravenous administration in spontaneously hypertensive rat; format: in vivo; conditions: in comparison with the basal value
From the text: The compounds object of the present invention after administration by intravenous route in spontaneously hypertensive rat at the dose of 0.033-0.53 µm/kg induce a meaningful systemic arterial pressure decrease comprised between 20 and 90 mmHg.

D₂ receptor = biological target: T2, D₂ receptor (Rattus norvegicus, UniProt P61169); assay: Dopaminergic activity: receptor binding on isolated membranes of rat striated muscle, D2; conditions: read-out: IC₅₀
T2 construct: from tissue; host or cells: isolated membranes of rat striated muscle (so in the source); probably striatum is meant
Procedure: as §1

T2 sequence (P61169 whole entry): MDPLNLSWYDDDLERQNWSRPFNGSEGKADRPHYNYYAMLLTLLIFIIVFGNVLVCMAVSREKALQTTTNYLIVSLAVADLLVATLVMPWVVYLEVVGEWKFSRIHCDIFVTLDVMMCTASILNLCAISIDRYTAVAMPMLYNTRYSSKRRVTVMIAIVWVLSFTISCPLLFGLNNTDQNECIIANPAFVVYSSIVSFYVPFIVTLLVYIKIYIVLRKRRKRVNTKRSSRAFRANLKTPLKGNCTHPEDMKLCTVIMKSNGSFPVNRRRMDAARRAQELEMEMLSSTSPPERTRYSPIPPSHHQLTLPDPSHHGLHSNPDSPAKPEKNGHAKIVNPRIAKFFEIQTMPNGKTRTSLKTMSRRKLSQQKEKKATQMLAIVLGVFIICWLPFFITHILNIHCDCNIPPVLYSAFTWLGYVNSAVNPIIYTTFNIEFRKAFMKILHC
T1 sequence (P18901 whole entry): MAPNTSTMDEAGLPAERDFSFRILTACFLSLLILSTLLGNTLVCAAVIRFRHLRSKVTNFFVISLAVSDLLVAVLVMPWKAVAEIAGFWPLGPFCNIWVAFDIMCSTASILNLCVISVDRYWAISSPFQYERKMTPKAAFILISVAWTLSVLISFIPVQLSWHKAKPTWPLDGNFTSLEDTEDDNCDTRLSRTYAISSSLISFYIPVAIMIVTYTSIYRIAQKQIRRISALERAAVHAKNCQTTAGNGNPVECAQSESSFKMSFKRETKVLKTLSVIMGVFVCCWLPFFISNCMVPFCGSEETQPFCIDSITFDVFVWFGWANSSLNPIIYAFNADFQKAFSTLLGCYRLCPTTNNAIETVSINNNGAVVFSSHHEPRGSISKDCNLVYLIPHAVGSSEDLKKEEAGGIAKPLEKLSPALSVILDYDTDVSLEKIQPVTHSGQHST

IC50 (D₁ receptor): 3000 nM
IC50 (D₂ receptor): 300 nM
Structure (SMILES): CCCN(CCOc1ccccc1OC)CCc1ccc(O)c(O)c1.Cl [compound A, N-[2-(2-methoxyphenoxy)ethyl]-N-propyl-dopamine hydrochloride]
pA₂ (α₁): 7.7
reduction of systemic arterial pressure ([1]; dose 12.5 µg/kg): 51 mmHg
reduction of systemic arterial pressure ([1]; dose 200 µg/kg): 89 mmHg

Reference: EP0321967A2, “Compounds active on the cardiovascular system” (ZAMBON GROUP S.p.A., priority 1987, dated 1989)
